Results published in PubChem BioAssay AID192 (DTP/NCI, 2004).
Values joined by “and” are separate entries in the source; they are usually repeats but may differ in a detail not shown here. Equal values may be shown once. Inconclusive results and toxic doses are left out. The calls were made as follows: active = survival T/C of 150% or more; inactive = T/C below 125% in these data.

Test system: BDF1 mice, B16 melanoma ip, median survival T/C
Assay: NCI In Vivo Anticancer Drug Screen. Data for tumor model B16 Melanoma (intraperitoneal) in B6D2F1 (BDF1) mice
Details: endpoint: median survival time, higher = longer survival
Summary of the method: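 Antitumor activity is assessed in mice bearing a transplanted tumor, with survival or tumor size compared against vehicle-dosed controls and expressed as T/C.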

[1] = dose: 50.0 mg/kg/injection, schedule: Q04DX003 (ip), vehicle: Klucel (hydroxypropylcellulose) (HPC)
[2] = dose: 100.0 mg/kg/injection, schedule: Q04DX003 (ip), vehicle: Klucel (hydroxypropylcellulose) (HPC)
[3] = dose: 200.0 mg/kg/injection, schedule: Q04DX003 (ip), vehicle: Klucel (hydroxypropylcellulose) (HPC)
[4] = dose: 25.0 mg/kg/injection, schedule: Q01DX009 (ip), vehicle: saline with Tween-80
[5] = dose: 50.0 mg/kg/injection, schedule: Q01DX009 (ip), vehicle: saline with Tween-80
[6] = dose: 100.0 mg/kg/injection, schedule: Q01DX009 (ip), vehicle: Klucel (hydroxypropylcellulose) (HPC)
[7] = dose: 200.0 mg/kg/injection, schedule: Q01DX009 (ip), vehicle: Klucel (hydroxypropylcellulose) (HPC)
[8] = dose: 400.0 mg/kg/injection, schedule: Q01DX009 (ip), vehicle: Klucel (hydroxypropylcellulose) (HPC)
[9] = dose: 25.0 mg/kg/injection, schedule: Q01DX009 (ip), vehicle: saline
[10] = dose: 50.0 mg/kg/injection, schedule: Q01DX009 (ip), vehicle: saline

Measured: T/C

CCCCCCCCCCCC1=NCCN1
inactive: dose: 3.0 mg/kg/injection, schedule: Q01DX009 (ip), vehicle: saline with Tween-80 94 % of control | dose: 6.0 mg/kg/injection, schedule: Q01DX009 (ip), vehicle: saline with Tween-80 97 % of control | dose: 12.0 mg/kg/injection, schedule: Q01DX009 (ip), vehicle: saline with Tween-80 88 % of control

O=C(SCC(NSc1ccccc1[N+](=O)[O-])C(=O)O)c1ccccc1 (stereo not given)
inactive: [1] 113 % of control | [2] 100 % of control | [3] 94 % of control

COC(=O)CC(=O)CBr
inactive: dose: 5.0 mg/kg/injection, schedule: Q01DX009 (ip), vehicle: saline 100 % of control | dose: 10.0 mg/kg/injection, schedule: Q01DX009 (ip), vehicle: saline 93 % of control | dose: 20.0 mg/kg/injection, schedule: Q01DX009 (ip), vehicle: saline 94 % of control

COc1ccc(/C=C\C(=O)/C=C/c2ccc(OC)cc2)cc1
inactive: dose: 25.0 mg/kg/injection, schedule: Q04DX003 (ip), vehicle: Klucel (hydroxypropylcellulose) (HPC) 97 % of control | [1] 97 % of control | [2] 97 % of control

CN(C)c1ccc(C(=C2C=CC(=[N+](C)C)C=C2)c2ccc(N(C)C)cc2)cc1 (tested in a mixture with another compound)
inactive: dose: 0.31 mg/kg/injection, schedule: Q01DX009 (ip), vehicle: saline with Tween-80 123 % of control | dose: 0.62 mg/kg/injection, schedule: Q01DX009 (ip), vehicle: saline with Tween-80 109 % of control | dose: 1.25 mg/kg/injection, schedule: Q01DX009 (ip), vehicle: saline with Tween-80 104 % of control | dose: 2.5 mg/kg/injection, schedule: Q01DX009 (ip), vehicle: saline with Tween-80 116 % of control

CC1CCCC(C)N1NC1=NCCO1 (stereo not given)
inactive: dose: 12.5 mg/kg/injection, schedule: Q01DX009 (ip), vehicle: saline with Tween-80 97 % of control | [4] 102 % of control | [5] 97 % of control

O=C(/C(=C/c1ccccc1)CBr)c1ccccc1
inactive: dose: 0.13 mg/kg/injection, schedule: Q01DX009 (ip), vehicle: saline with Tween-80 89 % of control | dose: 0.25 mg/kg/injection, schedule: Q01DX009 (ip), vehicle: saline with Tween-80 100 % of control | dose: 0.5 mg/kg/injection, schedule: Q01DX009 (ip), vehicle: saline with Tween-80 86 % of control and 100 % of control | dose: 1.0 mg/kg/injection, schedule: Q01DX009 (ip), vehicle: saline with Tween-80 89 % of control and 92 % of control | dose: 2.0 mg/kg/injection, schedule: Q01DX009 (ip), vehicle: saline with Tween-80 89 % of control | dose: 4.0 mg/kg/injection, schedule: Q01DX009 (ip), vehicle: saline with Tween-80 89 % of control

OC(C#Cc1ccccc1)c1ccccc1 (stereo not given)
inactive: dose: 50.0 mg/kg/injection, schedule: Q04DX003 (ip), vehicle: saline with Tween-80 108 % of control | dose: 100.0 mg/kg/injection, schedule: Q04DX003 (ip), vehicle: saline with Tween-80 97 % of control | dose: 200.0 mg/kg/injection, schedule: Q04DX003 (ip), vehicle: saline with Tween-80 98 % of control

C[n+]1cccc(O)c1
inactive: dose: 100.0 mg/kg/injection, schedule: Q04DX003 (ip), vehicle: saline 95 % of control | dose: 200.0 mg/kg/injection, schedule: Q04DX003 (ip), vehicle: saline 97 % of control | dose: 400.0 mg/kg/injection, schedule: Q04DX003 (ip), vehicle: saline 102 % of control

O=S(=O)(CCCl)c1ccc2ccccc2c1
inactive: dose: 6.25 mg/kg/injection, schedule: Q01DX009 (ip), vehicle: Klucel (hydroxypropylcellulose) (HPC) 100 % of control | dose: 12.5 mg/kg/injection, schedule: Q01DX009 (ip), vehicle: Klucel (hydroxypropylcellulose) (HPC) 104 % of control | dose: 25.0 mg/kg/injection, schedule: Q01DX009 (ip), vehicle: Klucel (hydroxypropylcellulose) (HPC) 106 % of control | dose: 50.0 mg/kg/injection, schedule: Q01DX009 (ip), vehicle: Klucel (hydroxypropylcellulose) (HPC) 104 % of control

Nc1ncnc2c1ncn2C1OC(CO)CC1O (stereo not given)
inactive: dose: 18.75 mg/kg/injection, schedule: Q01DX009 (ip), vehicle: Klucel (hydroxypropylcellulose) (HPC) 113 % of control | dose: 37.5 mg/kg/injection, schedule: Q01DX009 (ip), vehicle: Klucel (hydroxypropylcellulose) (HPC) 112 % of control and 119 % of control | dose: 75.0 mg/kg/injection, schedule: Q01DX009 (ip), vehicle: Klucel (hydroxypropylcellulose) (HPC) 104 % of control and 115 % of control

C[CH2][Pb]([CH2]C)([CH2]C)[O]C(=O)COC
inactive: dose: 1.56 mg/kg/injection, schedule: Q01DX009 (ip), vehicle: Klucel (hydroxypropylcellulose) (HPC) 96 % of control | dose: 3.13 mg/kg/injection, schedule: Q01DX009 (ip), vehicle: Klucel (hydroxypropylcellulose) (HPC) 105 % of control

CCOC(=O)C1C(=O)CC(=O)C(C(=O)OCC)C1c1ccc(O)cc1 (stereo not given)
inactive: [6] 100 % of control | [7] 93 % of control | [8] 103 % of control

CCN(CC)C(=O)C1CN2CCc3cc(OC)c(OC)cc3C2CC1O (stereo not given)
inactive: [9] 90 % of control | [10] 100 % of control | dose: 100.0 mg/kg/injection, schedule: Q01DX009 (ip), vehicle: saline 100 % of control | dose: 200.0 mg/kg/injection, schedule: Q01DX009 (ip), vehicle: saline 102 % of control | dose: 400.0 mg/kg/injection, schedule: Q01DX009 (ip), vehicle: saline 100 % of control

CCC(=O)c1cc([N+](=O)[O-])ccc1NC(C)=O
inactive: [6] 101 % of control | [7] 107 % of control | [8] 109 % of control

Cc1cnccc1Br
inactive: dose: 25.0 mg/kg/injection, schedule: Q01DX009 (ip), vehicle: water 96 % of control | dose: 50.0 mg/kg/injection, schedule: Q01DX009 (ip), vehicle: water 97 % of control

C[N+](C)(C)C1CC1
inactive: dose: 12.5 mg/kg/injection, schedule: Q01DX009 (ip), vehicle: saline 105 % of control | [9] 102 % of control | [10] 102 % of control

Cc1ccccc1NC(=O)Nc1cccc(C)c1C
inactive: [1] 90 % of control | [2] 96 % of control | [3] 93 % of control

FC(F)(F)c1ccc2c(c1)N(CCCN1CCN(CCC3OCCCO3)CC1)c1ccccc1S2
inactive: dose: 0.78 mg/kg/injection, schedule: Q01DX009 (ip), vehicle: saline 116 % of control | dose: 1.56 mg/kg/injection, schedule: Q01DX009 (ip), vehicle: saline 118 % of control | dose: 3.12 mg/kg/injection, schedule: Q01DX009 (ip), vehicle: saline 90 % of control | dose: 6.25 mg/kg/injection, schedule: Q01DX009 (ip), vehicle: saline 115 % of control

BrC1(Br)CC1(c1ccccc1)c1ccccc1
inactive: [1] 111 % of control | [2] 105 % of control | [3] 102 % of control

CCCCNC(=O)Oc1ccc(C(=O)OCC)cc1
inactive: [4] 96 % of control | [5] 98 % of control | dose: 100.0 mg/kg/injection, schedule: Q01DX009 (ip), vehicle: saline with Tween-80 95 % of control

CNc1ccc(C(=O)O)cc1I
inactive: [6] 105 % of control | [2] 100 % of control | [7] 120 % of control | [3] 104 % of control | [8] 91 % of control | dose: 400.0 mg/kg/injection, schedule: Q04DX003 (ip), vehicle: Klucel (hydroxypropylcellulose) (HPC) 100 % of control
